In brackets after ≈: the same amount, converted by molar mass. Square brackets hold non-standard residues; d marks the D form. Peptide text beside a SMILES is read from it. Bip = N[C@@H](Cc1ccc(-c2ccccc2)cc1)C(=O)O; hhPhe = N[C@@H](CCCc1ccccc1)C(=O)O; NMeF = CN[C@@H](Cc1ccccc1)C(=O)O; hPhe = N[C@@H](CCc1ccccc1)C(=O)O; NMeM = CN[C@@H](CCSC)C(=O)O; NMeA = CN[C@@H](C)C(=O)O; Dap = NC[C@H](N)C(=O)O
System: E. coli BW25113
Type: cell-based, Escherichia coli
Details: BW25113
Protocol: Bacterial growth conditions. LB or Mueller Hinton II cation-adjusted broth (MHB II, BBL 212322) was prepared according to manufacturer's instructions and supplemented with arabinose at 0.02% for overnight growth or at indicated concentrations in the description of the figures. Bacterial cultures were grown at 37° C. When appropriate, media was supplemented with kanamycin (50 μg/mL), carbenicillin (50 μg/mL), chloramphenicol (12.5 or 25 μg/mL), hygromycin (200 μg/mL), and/or gentamicin (10 μg/mL).
Peptide sensitivity and MIC assays. Lyophilized peptides (Smartox Biotechnology, CPC Scientific. ABclonal) were solubilized to 10 mM in Tris buffer, pH 8, prior to making a 2-fold dilution series in MHBII cation adjusted broth with highest final assay concentration of 400-800 μM. Bacteria were grown to log phase and added to final OD600˜0.001. The final EDTA concentration was 0.5 mM for E. coli strains and 0.125 mM for USA300. The final volume of 10 μL/well in a 384 well black, clear bottom plate (Corning) was spun <1 min at <250×g and then incubated at 37° C. After 4 h, an equal volume (10 μL) of BacTiter-Glo™ (Promega) was added to each well and luminescence was read after 5 min on an EnVision plate reader (PerkinElmer). To measure the minimal inhibitory concentrations (MICs), bacteria from fresh overnight plates or log phase cultures were diluted with or without EDTA and peptides as described above to final OD600˜0.0002. Plates were incubated at 37° C. for 20 h before measuring OD600 with an EnVision plate reader.

| Compound | MIC E. coli BW25113 |
| --- | --- |
| CSCC[C@H](NC(=O)[C@H](CN)NC(=O)[C@@H]1CCCN1C(=O)[C@H](Cc1ccc(O)cc1)NC(C)=O)C(=O)N[C@@H](Cc1ccccc1)C(=O)N[C@@H](CCCNC(=N)N)C(=O)N[C@@H](CCCNC(=N)N)C(=O)N[C@@H](Cc1ccccc1)C(=O)N[C@@H](CC(C)C)C(=O)N[C@@H](CCC(=O)O)C(=O)N[C@@H](CCCCN)C(=O)N[C@@H](Cc1c[nH]c2ccccc12)C(=O)NCC(=O)N[C@@H](CC(C)C)C(=O)N[C@@H](CC(C)C)C(=O)N[C@@H](CCCNC(=N)N)C(N)=O [compound 103] (Ac-YP[Dap]MFRRFLEKWGLLR-NH2) | <12.5 µM |
| CSCC[C@H](NC(=O)[C@H](CN)NC(=O)[C@H](CCCc1ccccc1)NC(=O)[C@@H]1CCCN1C(=O)[C@H](CCCNC(=N)N)NC(C)=O)C(=O)N[C@@H](CCCNC(=N)N)C(=O)N[C@@H](CCCNC(=N)N)C(=O)N[C@@H](Cc1ccc(-c2ccccc2)cc1)C(=O)N[C@@H](CC(C)C)C(=O)N[C@@H](C)C(=O)N[C@@H](CCCCN)C(=O)N[C@@H](CCCNC(=N)N)C(=O)NCC(=O)N[C@@H](CC(C)C)C(N)=O [compound 226] (Ac-RP[hhPhe][Dap]MRR[Bip]LAKRGL-NH2) | 25.0 µM (≈ 47 µg/mL) |
| CSCC[C@H](NC(=O)[C@H](CN)NC(=O)[C@H](CCSC)NC(=O)[C@@H]1CCCN1C(=O)[C@H](CCCNC(=N)N)NC(C)=O)C(=O)N[C@@H](CCCNC(=N)N)C(=O)N[C@@H](CCCNC(=N)N)C(=O)N[C@@H](Cc1ccc(-c2ccccc2)cc1)C(=O)N[C@@H](CC(C)C)C(=O)N[C@@H](C)C(=O)N[C@@H](CCCCN)C(=O)N[C@@H](CCCNC(=N)N)C(=O)NCC(=O)N[C@@H](CC(C)C)C(N)=O [compound 219] (Ac-RPM[Dap]MRR[Bip]LAKRGL-NH2) | 25.0 µM (≈ 45.9 µg/mL) |
| CC(=O)N[C@@H](CCCNC(=N)N)C(=O)N1CCC[C@H]1C(=O)N[C@@H](CCc1ccccc1)C(=O)N[C@H](C(=O)N[C@@H](C)C(=O)N[C@@H](CCCNC(=N)N)C(=O)N[C@@H](CCCNC(=N)N)C(=O)N[C@@H](Cc1c[nH]c2ccccc12)C(=O)N[C@@H](CC(C)C)C(=O)N[C@@H](C)C(=O)N[C@@H](CCCCN)C(=O)N[C@@H](CCCNC(=N)N)C(=O)NCC(=O)N[C@@H](CC(C)C)C(N)=O)[C@@H](C)O [compound 222] (Ac-RP[hPhe]TARRWLAKRGL-NH2) | 12.5 µM (≈ 22.3 µg/mL) |
| CSCC[C@H](NC(=O)[C@H](CN)NC(=O)[C@H](Cc1ccc(O)cc1)NC(C)=O)C(=O)N1CCC[C@H]1C(=O)N[C@@H](Cc1ccccc1)C(=O)N[C@@H](CCCNC(=N)N)C(=O)N[C@@H](CCCNC(=N)N)C(=O)N[C@@H](Cc1ccccc1)C(=O)N[C@@H](CC(C)C)C(=O)N[C@@H](CCC(=O)O)C(=O)N[C@@H](CCCCN)C(=O)N[C@@H](Cc1c[nH]c2ccccc12)C(=O)NCC(=O)N[C@@H](CC(C)C)C(=O)N[C@@H](CC(C)C)C(=O)N[C@@H](CCCNC(=N)N)C(N)=O [compound 102] (Ac-Y[Dap]MPFRRFLEKWGLLR-NH2) | 25.0 µM (≈ 53.5 µg/mL) |
| CSCC[C@H](NC(=O)[C@H](CN)NC(=O)[C@H](CCSC)NC(=O)[C@@H]1CCCN1C(=O)[C@H](CCCNC(=N)N)NC(C)=O)C(=O)N[C@@H](CCCNC(=N)N)C(=O)N[C@@H](CCCNC(=N)N)C(=O)N[C@@H](Cc1ccc(-c2ccccc2)cc1)C(=O)N[C@@H](CC(C)C)C(=O)N[C@@H](C)C(=O)N[C@@H](CCCCN)C(=O)N[C@@H](Cc1c[nH]c2ccccc12)C(=O)NCC(=O)N[C@@H](CC(C)C)C(N)=O [compound 217] (Ac-RPM[Dap]MRR[Bip]LAKWGL-NH2) | 12.5 µM (≈ 23.3 µg/mL) |
| CSCC[C@H](NC(=O)[C@H](CN)NC(=O)[C@H](CCCc1ccccc1)NC(=O)[C@@H]1CCCN1C(=O)[C@H](CCCNC(=N)N)NC(C)=O)C(=O)N[C@@H](CCCNC(=N)N)C(=O)N[C@@H](CCCNC(=N)N)C(=O)N[C@@H](Cc1c[nH]c2ccccc12)C(=O)N[C@@H](CC(C)C)C(=O)N[C@@H](C)C(=O)N[C@@H](CCCCN)C(=O)N[C@@H](CCCNC(=N)N)C(=O)NCC(=O)N[C@@H](CC(C)C)C(N)=O [compound 227] (Ac-RP[hhPhe][Dap]MRRWLAKRGL-NH2) | 50.0 µM (≈ 92.1 µg/mL) |

Same assay, conditions: Table 8

| Compound | MIC E. coli BW25113 |
| --- | --- |
| Ac-YPMKFRRFLEKWGLLR-NH2 [compound 107] | 12.5 µM |
| Ac-RPMTWRRWLEKHGL-NH2 [compound 204] | 200.0 µM |
| CC(=O)N[C@@H](Cc1ccc(O)cc1)C(=O)N1CCC[C@H]1C(=O)N(C)[C@@H](Cc1ccccc1)C(=O)N[C@H](C(=O)N(C)[C@@H](C)C(=O)N[C@@H](CCCNC(=N)N)C(=O)N[C@@H](CCCNC(=N)N)C(=O)N[C@@H](Cc1ccccc1)C(=O)N[C@@H](CC(C)C)C(=O)N[C@@H](CCC(=O)O)C(=O)N[C@@H](CCCCN)C(=O)N[C@@H](Cc1c[nH]c2ccccc12)C(=O)NCC(=O)N[C@@H](CC(C)C)C(=O)N[C@@H](CC(C)C)C(=O)N[C@@H](CCCNC(=N)N)C(N)=O)[C@@H](C)O [compound 99] (Ac-YP[NMeF]T[NMeA]RRFLEKWGLLR-NH2) | 200.0 µM (≈ 425 µg/mL) |
| Ac-YPMTARRFLEKHGGL-NH2 [compound 101] | 50.0 µM |
| Ac-YPFTFRRFLEKWGLLR-NH2 [compound 79] | 200.0 µM |
| Ac-YPMRFRRFLEKWGLLR-NH2 [compound 108] | <12.5 µM |
| CSCC[C@H](NC(=O)[C@H](CN)NC(=O)[C@H](CCSC)NC(=O)[C@@H]1CCCN1C(=O)[C@H](CCCNC(=N)N)NC(C)=O)C(=O)N[C@@H](CCCNC(=N)N)C(=O)N[C@@H](CCCNC(=N)N)C(=O)N[C@@H](Cc1ccc(-c2ccccc2)cc1)C(=O)N[C@@H](CC(C)C)C(=O)N[C@@H](CCC(=O)O)C(=O)N[C@@H](CCCCN)C(=O)N[C@@H](CCCNC(=N)N)C(=O)NCC(=O)N[C@@H](CC(C)C)C(N)=O [compound 218] (Ac-RPM[Dap]MRR[Bip]LEKRGL-NH2) | 200.0 µM (≈ 379 µg/mL) |
| CSCC[C@H](NC(=O)[C@H](CN)NC(=O)[C@H](CCSC)N(C)C(=O)[C@@H]1CCCN1C(=O)[C@H](Cc1ccc(O)cc1)NC(C)=O)C(=O)N[C@@H](CCCNC(=N)N)C(=O)N[C@@H](CCCNC(=N)N)C(=O)N[C@@H](Cc1ccccc1)C(=O)N[C@@H](CC(C)C)C(=O)N[C@@H](CCC(=O)O)C(=O)N[C@@H](CCCCN)C(=O)N[C@@H](Cc1c[nH]c2ccccc12)C(=O)NCC(=O)N[C@@H](CC(C)C)C(=O)N[C@@H](CC(C)C)C(=O)N[C@@H](CCCNC(=N)N)C(N)=O [compound 96] (Ac-YP[NMeM][Dap]MRRFLEKWGLLR-NH2) | 50.0 µM (≈ 107 µg/mL) |
| CSCC[C@@H](C(=O)N[C@@H](CCCNC(=N)N)C(=O)N[C@@H](CCCNC(=N)N)C(=O)N[C@@H](Cc1ccccc1)C(=O)N[C@@H](CC(C)C)C(=O)N[C@@H](CCC(=O)O)C(=O)N[C@@H](CCCCN)C(=O)N[C@@H](Cc1c[nH]c2ccccc12)C(=O)NCC(=O)N[C@@H](CC(C)C)C(=O)N[C@@H](CC(C)C)C(=O)N[C@@H](CCCNC(=N)N)C(N)=O)N(C)C(=O)[C@H](CN)NC(=O)[C@H](CCSC)N(C)C(=O)[C@@H]1CCCN1C(=O)[C@H](Cc1ccc(O)cc1)NC(C)=O [compound 98] (Ac-YP[NMeM][Dap][NMeM]RRFLEKWGLLR-NH2) | 25.0 µM (≈ 53.8 µg/mL) |
| CSCC[C@@H](C(=O)N[C@@H](CN)C(=O)N(C)[C@@H](Cc1ccccc1)C(=O)N[C@@H](CCCNC(=N)N)C(=O)N[C@@H](CCCNC(=N)N)C(=O)N[C@@H](Cc1ccccc1)C(=O)N[C@@H](CC(C)C)C(=O)N[C@@H](CCC(=O)O)C(=O)N[C@@H](CCCCN)C(=O)N[C@@H](Cc1c[nH]c2ccccc12)C(=O)NCC(=O)N[C@@H](CC(C)C)C(=O)N[C@@H](CC(C)C)C(=O)N[C@@H](CCCNC(=N)N)C(N)=O)N(C)C(=O)[C@@H]1CCCN1C(=O)[C@H](Cc1ccc(O)cc1)NC(C)=O [compound 100] (Ac-YP[NMeM][Dap][NMeF]RRFLEKWGLLR-NH2) | 25.0 µM (≈ 54.2 µg/mL) |
| CSCC[C@@H](C(=O)N[C@@H](CN)C(=O)N(C)[C@@H](C)C(=O)N[C@@H](CCCNC(=N)N)C(=O)N[C@@H](CCCNC(=N)N)C(=O)N[C@@H](Cc1ccccc1)C(=O)N[C@@H](CC(C)C)C(=O)N[C@@H](CCC(=O)O)C(=O)N[C@@H](CCCCN)C(=O)N[C@@H](Cc1c[nH]c2ccccc12)C(=O)NCC(=O)N[C@@H](CC(C)C)C(=O)N[C@@H](CC(C)C)C(=O)N[C@@H](CCCNC(=N)N)C(N)=O)N(C)C(=O)[C@@H]1CCCN1C(=O)[C@H](Cc1ccc(O)cc1)NC(C)=O [compound 97] (Ac-YP[NMeM][Dap][NMeA]RRFLEKWGLLR-NH2) | 200.0 µM (≈ 418 µg/mL) |
| CSCC[C@H](NC(=O)[C@@H]1CCCN1C(=O)[C@H](Cc1ccc(O)cc1)NC(C)=O)C(=O)N[C@@H](Cc1ccccc1)C(=O)N[C@@H](CN)C(=O)N[C@@H](CCCNC(=N)N)C(=O)N[C@@H](CCCNC(=N)N)C(=O)N[C@@H](Cc1ccccc1)C(=O)N[C@@H](CC(C)C)C(=O)N[C@@H](CCC(=O)O)C(=O)N[C@@H](CCCCN)C(=O)N[C@@H](Cc1c[nH]c2ccccc12)C(=O)NCC(=O)N[C@@H](CC(C)C)C(=O)N[C@@H](CC(C)C)C(=O)N[C@@H](CCCNC(=N)N)C(N)=O [compound 104] (Ac-YPMF[Dap]RRFLEKWGLLR-NH2) | 200 µM (≈ 428 µg/mL) |

— patent publication US20220135622A1, “ANTIBACTERIAL PEPTIDES AND METHODS OF USE” (priority 2019, published 2022)
